SMILES strings stand for the structures.

For the test, the target named is T1, binding of KRAS^G12C to SOS1 (Homo sapiens, UniProt Q07889).
T1 construct: Tag1 (unspecified)
T1 sequence (Q07889 1-1333): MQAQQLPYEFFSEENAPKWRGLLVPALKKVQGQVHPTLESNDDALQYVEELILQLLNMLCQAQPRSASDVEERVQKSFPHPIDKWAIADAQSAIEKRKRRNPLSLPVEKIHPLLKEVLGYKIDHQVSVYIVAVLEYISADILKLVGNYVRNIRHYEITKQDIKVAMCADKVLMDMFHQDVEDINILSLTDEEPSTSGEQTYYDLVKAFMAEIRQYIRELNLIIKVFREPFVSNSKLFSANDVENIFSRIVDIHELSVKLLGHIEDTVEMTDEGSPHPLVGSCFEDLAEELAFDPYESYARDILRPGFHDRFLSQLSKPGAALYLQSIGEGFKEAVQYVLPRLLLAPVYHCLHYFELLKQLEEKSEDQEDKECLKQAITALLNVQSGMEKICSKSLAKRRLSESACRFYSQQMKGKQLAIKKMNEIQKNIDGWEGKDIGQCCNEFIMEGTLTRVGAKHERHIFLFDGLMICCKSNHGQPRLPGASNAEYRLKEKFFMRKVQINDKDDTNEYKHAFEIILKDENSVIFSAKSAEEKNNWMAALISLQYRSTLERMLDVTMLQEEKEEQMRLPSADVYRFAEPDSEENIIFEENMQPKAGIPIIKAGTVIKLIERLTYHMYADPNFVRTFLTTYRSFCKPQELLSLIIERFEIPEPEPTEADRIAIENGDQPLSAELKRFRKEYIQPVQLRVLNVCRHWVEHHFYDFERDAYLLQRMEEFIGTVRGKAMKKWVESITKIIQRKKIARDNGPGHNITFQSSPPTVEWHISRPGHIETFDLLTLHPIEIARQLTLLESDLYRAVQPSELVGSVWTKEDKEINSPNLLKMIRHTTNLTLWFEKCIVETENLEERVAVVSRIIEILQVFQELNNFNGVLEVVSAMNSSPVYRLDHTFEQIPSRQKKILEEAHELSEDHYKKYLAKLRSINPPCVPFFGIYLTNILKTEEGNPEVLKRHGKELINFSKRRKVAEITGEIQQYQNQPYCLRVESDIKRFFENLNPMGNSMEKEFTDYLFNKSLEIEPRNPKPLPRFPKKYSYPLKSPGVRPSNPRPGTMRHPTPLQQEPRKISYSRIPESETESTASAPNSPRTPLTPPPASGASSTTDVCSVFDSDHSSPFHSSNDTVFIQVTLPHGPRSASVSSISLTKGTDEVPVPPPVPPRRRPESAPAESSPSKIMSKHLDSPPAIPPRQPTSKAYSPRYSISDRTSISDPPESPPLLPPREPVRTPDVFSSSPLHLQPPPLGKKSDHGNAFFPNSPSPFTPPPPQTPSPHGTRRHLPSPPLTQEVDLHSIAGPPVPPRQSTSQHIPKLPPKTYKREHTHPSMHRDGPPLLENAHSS
The test can be described thus: Inhibition of the binding of KRAS^G12C to SOS1. Conditions: Tag1-SOS1 / Tag2-KRAS^G12C, 2 h incubation at room temperature; read-out: IC50 (nM), inhibitory activity on the binding of KRAS^G12C to SOS1. As for the experimental part:
• (1) Gradient dilution of the test compounds: 10 mM mother solution (dissolved in 100% DMSO) was added to a 384-well test plate, the final content of DMSO being 0.25%.
(2) 5 μL of Tag1-SOS1 solution was added to the test plate, and 5 μL of dilution buffer was added to the control group.
(3) 5 μL of Tag2-KRAS^G12C solution was added to the test plate.
(4) 10 μL of Anti-Tag1-Tb3+ and Anti-Tag2-XL665 detection solution were added to the test plate. The plate was centrifuged at 1000 rpm for 1 min and incubated at room temperature for 2 h.
(6) The IC50 values for the compounds were finally calculated using GraphPad Prism software, and a curve was fit and plotted.
The inhibitory activity of the compounds of the examples of the present invention on the binding of KRAS^G12C enzyme to SOS1 is shown in Table 1.
With `COc1cc2nc(C)nc(N[C@H](C)c3cc(N)cc(C(F)(F)F)c3)c2cc1OC[C@H](C)OC` [Example 47], the IC50 was found to be 7.4 nM.
`COc1cc2nc(C)nc(N[C@H](C)c3cc(N)cc(C(F)(F)F)c3)c2cc1OCCOC1CCC1` [Example 49, (R)—N-(1-(3-Amino-5-(trifluoromethyl)phenyl)ethyl)-6-(2-cyclobutoxyethoxy)-7-methoxy-2-methylquinazolin-4-amine]: the half-maximal inhibitory concentration (IC50) came out at 4.6 nM.
For `COCCOCCOc1cc2c(N[C@H](C)c3cc(N)cc(C(F)(F)F)c3)nc(C)nc2cc1OC` [Example 50, (R)—N-(1-(3-Amino-5-(trifluoromethyl)phenyl)ethyl)-7-methoxy-6-(2-(2-methoxyethoxy)ethoxy)-2-methylquinazolin-4-amine] the value was 4.2 nM; for `COCCOc1cc2c(N[C@H](C)c3cc(C(F)(F)F)cc(N)n3)nc(C)nc2cc1OC` [Example 51, (R)—N-(1-(6-Amino-4-(trifluoromethyl)pyridin-2-yl)ethyl)-7-methoxy-6-(2-methoxyethoxy)-2-methylquinazolin-4-amine], 24 nM; for `COCCOc1cc2c(N[C@H](C)c3cc(N)cc(C(F)(F)F)n3)nc(C)nc2cc1OC` [Example 52, (R)—N-(1-(4-Amino-6-(trifluoromethyl)pyridin-2-yl)ethyl)-7-methoxy-6-(2-methoxyethoxy)-2-methylquinazolin-4-amine], 31 nM.
As to `COc1cc2nc(C)nc(N[C@H](C)c3cc(N)cc(C(F)(F)F)c3)c2cc1OCCCOC1CC1` [Example 53, (R)—N-(1-(3-Amino-5-(trifluoromethyl)phenyl)ethyl)-6-(3-cyclopropoxypropoxy)-7-methox y-2-methylquinazolin-4-amine], the IC50 turned out to be 3.7 nM.
Consider `CNCC1(COc2cc3c(N[C@H](C)c4cccc(C(F)(F)F)c4F)nc(C)nc3cc2OC)CC1` [Example 54, (R)—N-(1-(2-Fluoro-3-(trifluoromethyl)phenyl)ethyl)-7-methoxy-2-methyl-6-((1-((methylamino)methyl)cyclopropyl)methoxy)quinazolin-4-amine], for which the IC50 came out at 15 nM.
As to `COc1cc2nc(C)nc(N[C@H](C)c3cccc(C(F)(F)F)c3F)c2cc1OCC1(CO)CC1` [Example 55, (R)-(1-(((4-((1-(2-Fluoro-3-(trifluoromethyl)phenyl)ethyl)amino)-7-methoxy-2-methylquinazolin-6-yl)oxy)methyl)cyclopropyl)methanol], the IC50 came out at 16 nM.
With `COCC1(COc2cc3c(N[C@H](C)c4cc(N)cc(C(F)(F)F)c4)nc(C)nc3cc2OC)CC1` [Example 56, (R)—N-(1-(3-Amino-5-(trifluoromethyl)phenyl)ethyl)-7-methoxy-6-((1-(methoxymethyl)cyclopropyl)methoxy)-2-methylquinazolin-4-amine], the 50% inhibitory concentration (IC50) was found to be 9.6 nM.
In the case of `[2H]C([2H])([2H])OCCOc1cc2c(N[C@H](C)c3cc(N)cc(C(F)(F)F)c3)nc(C)nc2cc1OC` [Example 57, (R)—N-(1-(3-Amino-5-(trifluoromethyl)phenyl)ethyl)-7-methoxy-6-(2-(methoxy-d3)ethoxy)-2-methylquinazolin-4-amine], the IC50 came to 5.2 nM.
For `COc1cc2nc(C)nc(N[C@H](C)c3cc(N)cc(C(F)(F)F)c3)c2cc1OCCOCC1CC1` [Example 58, (R)—N-(1-(3-Amino-5-(trifluoromethyl)phenyl)ethyl)-6-(2-(cyclopropylmethoxy)ethoxy)-7-methoxy-2-methylquinazolin-4-amine], the IC50 was found to be 5.1 nM.
For `COCC(COC)Oc1cc2c(N[C@H](C)c3cc(N)cc(C(F)(F)F)c3)nc(C)nc2cc1OC` [Example 59, (R)—N-(1-(3-Amino-5-(trifluoromethyl)phenyl)ethyl)-6-((1,3-dimethoxypropan-2-yl)oxy)-7-methoxy-2-methylquinazolin-4-amine] the value was 4.7 nM.
Take `COc1cc2nc(C)nc(N[C@H](C)c3cc(C(F)(F)F)cc(N)n3)c2cc1OCCOC1COC1` [Example 60, (R)—N-(1-(6-Amino-4-(trifluoromethyl)pyridin-2-yl)ethyl)-7-methoxy-2-methyl-6-(2-(oxetan-3-yloxy)ethoxy)quinazolin-4-amine]: the IC50 came out at 18 nM.
For the compound `COc1cc2nc(C)nc(N[C@H](C)c3cc(N)cc(C(F)(F)F)c3)c2cc1OCCOC1(C)COC1` [Example 61, (R)—N-(1-(3-Amino-5-(trifluoromethyl)phenyl)ethyl)-7-methoxy-2-methyl-6-(2-((3-methyloxetan-3-yl)oxy)ethoxy)quinazolin-4-amine], the IC50 was found to be 3.7 nM.
Turning to `COc1cc2nc(C)nc(N[C@H](C)c3cc(N)cc(C(F)(F)F)c3)c2cc1OCCOc1cccnc1` [Example 62, (R)—N-(1-(3-Amino-5-(trifluoromethyl)phenyl)ethyl)-7-methoxy-2-methyl-6-(2-(pyridin-3-yloxy)ethoxy)quinazolin-4-amine], the IC50 stood at 5.3 nM.
`COCC1(C(C)Oc2cc3c(N[C@H](C)c4cc(N)cc(C(F)(F)F)c4)nc(C)nc3cc2OC)CC1` (stereo partly drawn) [Example 63, N—((R)-1-(3-Amino-5-(trifluoromethyl)phenyl)ethyl)-7-methoxy-6-(1-(1-(methoxymethyl)cyclopropyl)ethoxy)-2-methylquinazolin-4-amine]: the IC50 was 12 nM.
The same measure for `COc1cc2nc(C)nc(N[C@H](C)c3cc(N)cc(C(F)(F)F)c3)c2cc1OCCOC1(C)CCC1` [Example 64, (R)—N-(1-(3-Amino-5-(trifluoromethyl)phenyl)ethyl)-7-methoxy-2-methyl-6-(2-(1-methylcyclobutoxy)ethoxy)quinazolin-4-amine]: 8.7 nM; for `COc1cc2nc(C)nc(N[C@H](C)c3cc(N)cc(C(F)(F)F)c3)c2cc1OCC1(C(C)OC)CC1` (stereo partly drawn) [Example 65, N—((R)-1-(3-Amino-5-(trifluoromethyl)phenyl)ethyl)-7-methoxy-6-((1-(1-methoxyethyl)cyclopropyl)methoxy)-2-methylquinazolin-4-amine]: 16 nM.
As for `COc1cc2nc(C)nc(N[C@H](C)c3cc(N)cc(C(F)(F)F)c3)c2cc1OCCO[C@H]1CCOC1` [Example 66, N—((R)-1-(3-Amino-5-(trifluoromethyl)phenyl)ethyl)-7-methoxy-2-methyl-6-(2-(((S)-tetrahydrofuran-3-yl)oxy)ethoxy)quinazolin-4-amine], the IC50 was 7 nM.
As for `COc1cc2nc(C)nc(N[C@H](C)c3cc(N)cc(C(F)(F)F)c3)c2cc1OCCO[C@@H]1CCOC1` [Example 67, N—((R)-1-(3-Amino-5-(trifluoromethyl)phenyl)ethyl)-7-methoxy-2-methyl-6-(2-(((R)-tetrahydrofuran-3-yl)oxy)ethoxy)quinazolin-4-amine], the IC50 worked out at 4.2 nM.
The same measure for `COc1cc2nc(C)nc(N[C@H](C)c3cc(N)cc(C(F)(F)F)c3)c2cc1OC[C@@H](C)OC1COC1` [Example 68, N—((R)-1-(3-Amino-5-(trifluoromethyl)phenyl)ethyl)-7-methoxy-2-methyl-6-((R)-2-(oxetan-3-yloxy)propoxy)quinazolin-4-amine]: 6.2 nM; for `COc1cc2nc(C)nc(N[C@H](C)c3cc(N)cc(C(F)(F)F)c3)c2cc1OC[C@H](C)OC1COC1` [Example 69, N—((R)-1-(3-Amino-5-(trifluoromethyl)phenyl)ethyl)-7-methoxy-2-methyl-6-((S)-2-(oxetan-3-yloxy)propoxy)quinazolin-4-amine]: 6.2 nM.

The IC50 is the point on the concentration scale where inhibition reaches its midpoint.

The values above are taken from patent US20240336606A1 (Suzhou Zelgen Biopharmaceuticals Co., Ltd., priority 2020, published 2024).
